Assay results as given in patent publication US20200190592A1, “PME-1 AS A BIOMARKER TO PREDICT AND DIAGNOSE AN INCREASED RISK OF ENDOMETRIAL CANCER AND GENE SILENCING OF PME-1 TO INHIBIT EPITHELIAL TO MESENCHYMAL TRANSITION” (Medical Diagnostic Laboratories, L.L.C., priority 2018, published 2020).

What was measured:
Type in all cases: cell-based, human
RL95-2 cells [1] = experiment: Colony forming / invasive growth assay in Matrigel; settings: RL95-2 in Matrigel
Protocol: To determine if PME-1 contributes to the more invasive and metastatic phenotypes, we performed a colony forming assay in matrigel.
The 3D On Top Matrigel Assay was completed in 24 well dishes as described previously {Lee, 2007 #1577}. Briefly, the bottoms of 24 well dishes were coated with 50 μl BD Matrigel Basement Matrix Phenol Red Free (BD Biosciences cat. #356237) and allowed to solidify at 37° C. 10^5 cells were suspended in 250 μl chilled medium containing either 10 ng/ml of TGF-b or vehicle and allowed to settle at 37° C. for 30 minutes. Chilled medium containing 10% of Matrigel was added by pipetting gently down the sidewall of the well and incubated at 37° C. for ten days changing top medium every second day. Colony counts were performed on the tenth day, averages were taken from three fields of view using a 10× objective. Experiment was repeated three times.

RL95-2 cells [2] = experiment: BrDU incorporation assay; settings: compared to scrambled shRNA control set to 100%
Protocol: To confirm our foci formation data that altering PME-1 levels in endometrial cancer cells affect their rate of cell proliferation, we conducted a BrDU incorporation assay. BrDU is incorporated into newly synthesized DNA and can be detected with antibodies; thus, increased BrDU incorporation correlates with an increased level of proliferation.
The BrDU Incorporation assay was completed with RL95-2 cell lines in media supplemented with 2.5 μg/ml puromycin. Cells were plated at 0.5*10^4 cells per well into a 96 well dish with 0% FBS and allowed to settle for 24 hours. The assay was completed as per kit instructions (Roche, Cell Proliferation ELISA, BrdU colorimetric cat. #11647229001). Briefly, 10 uM BrdU was added to the cells, 24 hours later cells were fixed and denatured with FixDenat from the kit and allowed to incubate with anti-BrdU antibody for up to two hours. Following the incubation and addition of the kit substrate, absorbances were read using FluoStar Galaxy.

DcR2 = experiment: Senescence assay (Western for DcR2); settings: RL95-2 lysates, GAPDH loading control
Protocol: We next analyzed cell lysates taken from RL95-2 cells that expressed either empty vector (Control), overexpressed PME-1 (+PME-1) or expressed shRNA against PME-1 (−PME-1) for DcR2 protein.
15 μg of protein was used for western analysis. PME-1 antibody (Santa Cruz) and COXIV (Cell Signaling Technologies) were used for detection of proteins and the blots were developed using chemiluminescence (Pierce ECL Western Blotting Substrate—Thermo Scientific) on the GE ImageQuant LAS 4000. For analysis of Akt, ERK, and β-catenin signaling in tissue culture, western analyses were completed as follows. RL95-2 cells stably infected with lentivirus expressing constructs were selected with puromycin (Invivogen). The cells were incubated with either 50 μM Akt inhibitor (LY 294002, Cell Signaling Technologies) or 40 μM ERK inhibitor (V0126, Cell Signaling Technologies) for 1-2 hours at 37° C. 1.5× Laemelli buffer (0.5 M Tris pH6.8, […], 10% sodium dodecyl sulfate, 100 mM EDTA) was used to prepare cell lysates. 20 μg of protein was used for western analysis. Primary antibodies used were: P-Akt (Ser473), P-Akt (Thr308), pan-Akt, P-ERK (Thr202/204), total ERK (Cell Signaling Technologies), PME-1 (Santa Cruz), phospho-β-catenin (Ser45, Cell Signaling Technologies), phospho-β-catenin (Ser33/37/Thr41, Cell Signaling Technologies), β-catenin (Abcam), DcR2 (Abcam), and GAPDH (Abcam). […]

RL95-2 cells [3] = experiment: Immunofluorescence for phosphorylated histone H3 (mitotic cells); settings: −PME-1 cells compared to control cells
Protocol: Endometrial cancer cells were stained for phosphorylated histone H3 on serine 10, a marker of mitotic cells, followed by counterstaining with DAPI (FIG. 12) to identify all cells.
For analysis of patient samples, tissues were blocked for 2 hr with 10% FBS in TBST for at RT, incubated with each primary antibody (together) overnight at 4° C., washed three times for 15 min in TBST, incubated with each secondary fluorescent antibody (together) for 1 hr at RT, washed again as above, stained with DAPI and mounted with cover-slips using vectashield mounting media (Vector Labs). Primary antibodies used were for PME-1 (Santa Cruz), E-cadherin (Millipore), and vimentin (Genscript). 1×10^3RL95-2 cells were plated on a chamber slide and were incubated overnight at 37° C. Slides were fixed with 4% paraformaldehyde (PFA) on ice for two hours. The cells were incubated with the primary antibody to Histone 3 (pH3) phosphorylated at Ser10 (1:200, Cell Signaling Technologies) overnight and developed with the secondary anti-rabbit Alexa-Fluor 555 antibody (Cell Signaling Technologies). DAPI was used as a nuclear counter-stain (Sigma Aldrich). Images were taken with the Nikon Eclipse TE2000 at 20×.

RL95-2 cells [4] = experiment: Foci forming assay in RL95-2 cells; settings: RL95-2, PME-1 depleted, compared to control cells
Protocol: A foci forming assay was used in this study to monitor cell growth. Equal amounts of cells were plated and they were allowed to grow for a determined period of time (see Materials and Methods section for details). The foci that were formed were then stained with the crystal violet dye. Cells were washed […] with PBS prior to visualization. Numbers of foci were counted and results were averaged among different experiments.
To determine if the loss of active PME-1 accounted for the observed decrease in foci formation, we first treated RL95-2 cells with siRNA against the 3′-UTR of PPME1 to decrease endogenous levels of PME-1. […] The S156A PME-1 mutant is not capable of demethylating its target, PP2A.
1,000 cells were plated in a six well tissue culture dish in selection media (to include 5 μg/ml puromycin) (InvivoGen). Cells were allowed to adhere and grow in a 5% CO2, 37° C. incubator for 10 to 14 days. Media was replaced every fourth day. Cells were stained with 1% crystal violet (Sigma Aldrich) for five minutes and rinsed with PBS. Colonies were counted and data is presented as the percentage of change compared to the control. All Experiments were repeated at least three times.

PP2A = PP2A phosphatase assay on RL95-2 whole cell extract; settings: RL95-2 cells, 500 μg whole cell extract, vs non-targeting control
Protocol: Because PME-1 is a known inhibitor of PP2A, we confirmed in this study that depletion of PME-1 by siRNA led to an increase in PP2A activity in cells. To do so, we treated RL95-2 cells with either non-targeting siRNA (Control) or siRNA against PPME1. PP2A activity was monitored using a phosphatase assay (R&D Systems Duo IC Set phosphatase assay kit). In the phosphatase assay, we used 500 μg of whole cell extract and followed the manufacturer's recommendations.
Whole cell lysates were used with the DuoSet IC PP2A Phosphatase Assay Kit (R&D Systems). Procedure was carried out as per kit instructions with 500 μg protein and the absorbance was measured at 620 nm. The assay was repeated twice with similar results.

## shPPME1 no. 2: shRNA targeting PPME1, SEQ ID NO: 2: GCAGCGATTATTAGTAGAGTT, bp 289-309; used for all subsequent experiments (guide GCAGCGATTATTAGTAGAGTT; listed as Homo sapiens)
RL95-2 cells [1]; 10 days, vs control cells
  decrease in colony formation: 50%
RL95-2 cells [1]; −TGF-β, compared to control cells
  colonies number and size: fewer and smaller colonies
RL95-2 cells [2]
  decrease in BrDU incorporation: 40%
DcR2
  senescent marker protein DcR2: increase
RL95-2 cells [3]
  decreased proliferation (phospho-histone H3 positive cells): ~30%
RL95-2 cells [4]
  decrease in foci: 75%
PP2A
  increase in PP2A activity: 30 fold
